Results as given in patent US7144706B2, “Methods of modulating localization and physiological function of IP3 receptors” (Duke University, priority 2002, dated 2006).
pKd: −log10 of the molar value. Entries after “also recorded” stand apart in the source; their conditions may differ. Where no end group is shown, it is not given here.

Tests used:
[1] = tested on: IP3R; test: [3H]IP3 binding assay and Scatchard analysis, cardiac muscle microsomes; design: species or system mouse; conditions: for pKd: n=5
Experimental: IP3 Binding Experiments. Cardiac membranes were prepared and labeled with increasing concentrations (5–40 nM) of [^3H] IP3 (Amersham) essentially as described (Perez et al, J. Biol. Chem. 272:23961 1997)). Assays were performed in triplicate, and at each IP3 concentration, non-specific binding was assessed in the presence of 1 μM unlabeled IP3 (ICN).

[2] = tested on: AnkB+/− and +/+ mice
Description: Sudden cardiac death in humans with the E1425G mutation occurred secondary to physical exertion and emotional stress (FIG. 28)3. An attempt was made to mimic these circumstances in mice with exercise followed by injection with epinephrine.

[3] = tested on: wildtype and ankyrin-B (+/−) mice; test: Heart rate by ECG radiotelemetry in conscious mice after drug injection; assay type: in vivo, mouse; conditions: for heart rate response to endothelin-1: 300 ng/kg
Experimental: (§1) EKG recordings. EKG recordings were obtained using a radiotelemetry apparatus (DSI). Transmitters were implanted and the mice recovered for 5 days prior to recordings. EKG traces were analyzed using Data Quest analysis software 2.1 (DSI). P wave duration, PR interval, RR interval, QRS interval and QT interval were all calculated according to established methods. The rate corrected QT interval (QTc) was calculated from the relationship QTc=QT/(RR)^1/2 Following a 15-hour fast, blood glucose levels were measured (OneTouch Ultra; Lifescan) before and up to 120 min after an intraperitoneal injection of either PBS, glucose (2 g/kg) or insulin (5 units/kg; Eli Lilly) (Ludwig et al, J. Clin. Invest. 107:379–386 (2001)).
To test ankyrin-B heterozygous mice for potential defects in Gαq signaling, ECG radiotransmitter implants were implanted in the abdomen of ankyrin-B (+/−) mice as well as wildtype littermate controls. These probes allow the recording of real time ECG and thus heart rate recordings in conscious, non-anethestized mice. 24 hour recordings of wildtype mice compared to heterozygote animals show overall bradycardia in the heterozygote (FIG. 9).

[4] = tested on: adult AnkB+/− and control ventricular cardiomyocytes; test: Action potential recordings in isolated adult ventricular cardiomyocytes with isoproterenol; assay type: cell-based, mouse; conditions: for extrasystoles in action potentials after acute isoproterenol: isoproterenol (1 μM); for myocytes with DADs and EADs: isoproterenol
Experimental: Patch clamp methods. AnkB+/− and +/+ animals (1–3 months of age) were sacrificed by IP injection of pentobarbital sodium (100 mg/kg). Single myocytes were isolated (Santana et al, J. Physiol. 503:21 (1997)). Axopatch-200A or -200B amplifier (Axon Instruments) was used to measure membrane currents (Santana et al, J. Physiol. 503:21(1997), Santana et al, Science 279:1027 (1998)). Patch pipette (1–3 MOhm) solution (mM): CsCl (130); NaCl (10); MgATP (5); Hepes (10), MgCl2 (1) PH 7.2 (with CsOH). Superfusion solution 1: (mM) NaCl (140), KCl (5) MgCl2 (0.5), CaCl2 (1.8), NaH2PO4 (0.33), glucose (5.5) and HEPES (5); pH 7.4 at 35–37° C. Solution 2 was same as solution 1 but with CsCl substituted for KCl. After conversion to whole cell, voltage clamp in solution (1), solution (2) was used to measure ICa. Test depolarizations followed four 50 ms depolarizations to 0 mV at 1 Hz. A 500 ms ramp-depolarization from […] to 40 mV was followed by a 50 ms period at 40 mV before test depolarizations.
AP recordings. Myocytes were superfused with Solution 1. β adrenergic stimulation of cells produced by the addition of 1 μM isoproterenol to solution 1. Pipette filling solution as above, except KCl was substituted for CsCl (pH 7.2 with KOH). Axopatch 200A was used in current clamp mode to record AP. Current injections triggered AP at constant rate (1 Hz, 5 Hz). All experiments were performed at 37° C.

[5] = tested on: Na/K ATPase; test: [3H]ouabain binding to adult cardiac microsomes; design: species or system mouse
Description: Na/K ATPase, Na/Ca exchanger (NCX) and IP3R are candidate ankyrin-binding proteins based on biochemical data (Bennett et al, Physiol. Rev. 81:1353 (2001)) that are localized at T-tubules (Frank et al, in The Myocardium (ed. Langer, G A) 1–32 (Academic Press, San Diego, Calif., 1997)). Ankyrin-B co-immunoprecipitates with NCX1, α1 and α2 ATPase, and IP3R from extracts of heart tissue (FIG. 30B), but not with other cardiomyocyte proteins (including DHPR, SERCA2, and calsequestrin). Levels of IP3R (pan IP3R), α1 and α2 Na/K ATPase subunits, and NCX in isolated adult cardiomyocytes are reduced by 15–33% in AnkB+/− cardiomyocytes by immunoblots (FIG. 30C). Measurements of binding of [^3H] […] In contrast, by quantitative western blot analysis, protein levels of ER/SR components (SERCA2, calreticulin, calsequestrin), K+ channels or associated subunits (KCNQ1/KvLQT1, ERG1, MinK/IsK, Kir2.1/IRK1, Kir2.3/IRK3), RyR2, plasma membrane Ca^+2 channels (DHPR, PMCA2), and structural proteins (α-actinin, dystrophin) are unaffected (FIG. 30C).

[6] = tested on: (+/+) and AnkB (+/−) mice; test: Insulin-tolerance test, blood glucose; assay type: in vivo, mouse; conditions: 5 units/kg intraperitoneal, 120 min
Experimental: as §1

What does the source list for `O=P(O)(O)O[C@@H]1[C@H](O)[C@H](O)[C@@H](OP(=O)(O)O)[C@H](OP(=O)(O)O)[C@H]1O` [IP3, inositol 1,4,5-triphosphate]?
Bmax, IP3 binding capacity ([1]; (+/+) cardiac muscle): 0.083 pmol/mg; pKd ([1]; (+/+) cardiac muscle): 7.62; Bmax, IP3 binding capacity ([1]; AnkB (+/−) cardiac muscle): 0.056 pmol/mg; pKd ([1]; AnkB (+/−) cardiac muscle): 7.60; reduction in IP3 binding capacity ([1]; AnkB (+/−) vs wildtype heart): 33%; affinity for ligand, AnkB+/− vs +/+ ([1]; adult cardiac microsomes): unchanged

`CNC[C@H](O)c1ccc(O)c(O)c1` [epinephrine] was tested. Which “mice that became unresponsive or died” value ([2]; +/+ mice) did it give?
The value was 0/6.

And the “mice that died following exercise combined with epinephrine” value ([2]; AnkB+/− mice)?
The value was 8/14.

And the “time to polymorphic ventricular arrhythmias after EPI” value ([2]; AnkB+/− mouse, exercise and epinephrine)?
Its value is ~17 min.

Which “heart rate response to isoproterenol” value ([3]; wildtype and ankyrin-B (+/−) mice, 50 mg/kg) does the source give for `CC(C)NCC(O)c1ccc(O)c(O)c1` (stereo not drawn) [isoproterenol] here?
Its value is “responsed equally”.

And the “extrasystoles in action potentials after acute isoproterenol” value ([4]; AnkB+/− cardiomyocytes)?
The value was “developed spontaneous extrasystoles at both 1 and 5 Hz”.

And the “myocytes with DADs and EADs” value ([4]; AnkB+/− myocytes, 1 and 5 Hz)?
Its value is 36%.

And the “extrasystoles in action potentials after acute isoproterenol” value ([4]; control cells)?
The value was “did not”.

What about the “myocytes with DADs and EADs” value ([4]; control myocytes) of the same molecule?
Its value is “no control myocytes”.

`C[C@@H]1O[C@@H](O[C@H]2C[C@@H](O)[C@]3(CO)[C@H]4[C@H](O)C[C@]5(C)[C@@H](C6=CC(=O)OC6)CC[C@]5(O)[C@@H]4CC[C@]3(O)C2)[C@H](O)[C@H](O)[C@H]1O` [ouabain] was tested. Which “reduction in [3H]ouabain binding capacity” value ([5]; AnkB+/− heart vs +/+) did it give?
Its value is 16%.

And the “affinity for ligand, AnkB+/− vs +/+” value ([5]; adult cardiac microsomes)?
The value was “unchanged”.

Which results are given for `CNC[C@H](O)c1cccc(O)c1` [phenylephrine]?
heart rate response to phenylephrine ([3]; ankyrin-B (+/−) mice, 3 mg/kg): significant decreased heart rate sensitivity; also recorded: does not reach the same minimum levels as the wildtype; maximal decrease in heart rate after phenylephrine during beta blockade ([3]; ankyrin-B heterozygous mice, propanolol injected prior to phenylephrine): ~50 % of the wildtype response; heart rate response to phenylephrine ([3]; wildtype mice, 3 mg/kg intraperitoneal): rapid decrease in heart rate

For `CC(C)NCC(O)COc1cccc2ccccc12` (stereo not drawn) [propanolol], which “heart rate response to propanolol” value ([3]; wildtype and ankyrin-B heterozygote mice) is on record?
Its value is “typical decreases in heart rate which were not significantly different”.

Which results are given for “endothelin-1 (CSCSSLMDKECVYFCHLDIIW; ends and bridges not checked; cysteine pairing not given here; UniProt P05305 53-73, looked up) [signals via a Gαq-coupled receptor]”?
heart rate response to endothelin-1 ([3]; ankyrin-B (+/−) mice): significantly reduced; also recorded: does not reach the same levels as the wildtype; heart rate response to endothelin-1 ([3]; wildtype animals): significant decrease in heart rate

What does the source list for insulin?
blood glucose after insulin injection ([6]; (+/+) mice): decline following the insulin injection and return to near normal levels by the end of the 120 min period; blood glucose after insulin injection ([6]; AnkB (+/−) mice): significant reduction in blood glucose levels
